Where two headings read alike, the source gives them in different places.
Columns and labels:
[1] = tested on: Coccidia
[2] = tested on: digestive syndrome; experiment: prevention and treatment of digestive syndrome (colibacillosis and enterotoxemia) in rabbit farming; assay type: in vivo; details: rabbits
From the text: Given the complex relations existing between colibacillosis and enterotoxemia, they are currently included under the designation "digestive syndrome" for practical purposes. Treatment with an association of systemic drugs with drugs acting exclusively on the intestinal tract is indicated.
In the following table 2 the use of SMAA is compared to the products used most often in rabbit farming for the prevention and treatment of digestive syndrome: Table 2

[3] = growth feed for swine; cited from earlier work
[4] = tested on: Clostridium, E. coli, and Salmonella; experiment: treatment of ovine livestock with soluble SMAA in drinking water; assay type: in vivo
Description: In another preferred embodiment of the invention, soluble SMAA is applied with drinking water. This application is especially useful for the treatment of enteric bacterial processes, mainly Clostridium, E. coli, and Salmonella. […] Incompatibilities with other medicaments are unknown. A withdrawal period before slaughter is not necessary. When non-absorbable derivatives of sulfadimidine are added to drinking water, they are not often associated with other molecules. […] The usual dose ranges from 550-1100 g/2000 liters of water for 4 to 6 days. The availability of a soluble form makes it possible to administer the product in a milk substitute. In this case the dosage should be established in relation to the consumption of powdered milk substitutes.

[5] = solubility in water; assay type: physicochemical
From the text: If the amide is the amide of maleic acid (SMAA), the amide comprises one carboxylic group. […] The free acids of the compound of the invention are essentially water insoluble and electrically neutral compounds, which become soluble in water when the free carboxyl group or other groups in the compound are converted to the carboxylate form by addition of an equivalent amount of an appropriate base, for instance an alkali or ammonium hydroxide or amine or alkanolamine.

[6] = tested on: Serpulina hyodisenteriae; experiment: SMAA in feed against swine dysentery; assay type: in vivo; details: 550-600 g per ton of feed
From the text: Although establishing a dose for the administration of a therapeutic molecule is always difficult, because therapeutic efficacy not depend only on its efficacy at a given dose, but also on the state of the animals, management, sanitary conditions of operation, feeding etc., good results were obtained with SMAA in swine at doses of 550-600 g of SMAA per ton of feed. The association of SMAA with macrolides is interesting, but it is extremely important to consider the withdrawal period of the macrolide to avoid the accumulation of residues in carcasses.

[7] = tested on: digestive bacterial diseases in pigs; experiment: SMAA in feed against enteric processes in swine; assay type: in vivo; details: 400-600 g per ton of feed
[8] = tested on: Clostridium, E. coli, Salmonella, and Eimeria parasites; experiment: treatment of ovine livestock with SMAA in food; assay type: in vivo; details: even at high doses
From the text: In general, ovine livestock according to the invention is preferably treated with SMAA in food. The invention is especially useful for the prevention of enteric bacterial processes, mainly due to Clostridium, E. coli, Salmonella, and Eimeria parasites. […] Incompatibilities with other medicaments are unknown. It is not necessary to establish a withdrawal period before slaughter.
According to the invention, the association of SMAA-chlortetracycline is preferred when the pathology is located fundamentally in the digestive tract, and the association of SMAA-oxytetracycline when a preventive action at the enteric and respiratory level is sought. The most habitual doses range from 200 and 400 g/ton of feed, although it can be raised to 750 g/ton without problems.

[9] = tested on: C. perfringens; assay type: in vivo, lambs; details: 500 g/ton of feed
[10] = depletion of residue in lambs fed treated feed until the day of slaughter; assay type: in vivo; details: lambs that consumed treated feed until the day of slaughter
[11] = tested on: Eimeria; experiment: field tests, treatment of coccidiosis in broilers through feed; assay type: in vivo; details: 200 to 400 g/metric ton of feed; given in the first three weeks of life, then replaced by another coccidiostatic
Description: SMAA was used for the treatment of coccidiosis in broilers through feed, at doses ranging from 200 to 400 g/metric ton of feed. The best results in terms of mortality, weight gain, and conversion index have been obtained when SMAA is administered in the first three weeks of life of the chickens, and then replaced by another coccidiostatic. To this effect, our experience confirms the observations that an even improved productivity is obtained when two different coccidiostatics are alternated in the growth period.

## COc1cc(NS(=O)(=O)c2ccc(N)cc2)nc(OC)n1 [Sulfadimethoxine]
[1]; efficacy remark, rabbits
  Observations: Very interesting in mixed infections
[1]; rabbit, in vivo
  Observations: requires a period of withdrawal before slaughter

## Neomycin
[2]; efficacy remark
  Observations: Efficacious against moderately pathogenic strains.

## Cc1cc(C)nc(NS(=O)(=O)c2ccc(N)cc2)n1 [Sulfadimidine, 2-(4-aminobenzenesulfonamido)-4,6-dimethylpyrimidine]
[1]; effect on mortality, rabbits
  Observations: This treatment curtails mortality
[3]
  withdrawal period: 28 days

## O=C1OCCN1/N=C/c1ccc([N+](=O)[O-])o1 [Furazolidone]
[2]; efficacy remark
  Observations: Effective.

## Colistin
[2]; effect on mortality
  Observations: Colistin reduces mortality

## Cc1cc(C)nc(NS(=O)(=O)c2ccc(NC(=O)/C=C\C(=O)O)cc2)n1 [soluble SMAA]
[4]; even at high doses
  dysbacteriosis: no problems of dysbacteriosis have appeared
[4]; usually 4 to 6 days
  treatment of coccidiosis outbreaks: highly effective
[5]; listed as sodium salt
  solubility in water: essentially soluble

## CCN1CCN(c2cc3c(cc2F)c(=O)c(C(=O)O)cn3C2CC2)CC1 [Enrofloxacin]
[2]; efficacy remark
  Observations: Effective

## COc1cc(NS(=O)(=O)c2ccc(NC(=O)/C=C\C(=O)O)cc2)nc(OC)n1 [Sulfadimethoxine maleic acid amide]
[1]; efficacy remark, rabbits
  Observations: Very interesting in mixed infections
[1]; rabbit, in vivo
  Observations: Treatments can continue for 21 days without risk of toxicity or residues in carcasses

## Cc1cc(C)nc(NS(=O)(=O)c2ccc(NC(=O)/C=C\C(=O)O)cc2)n1 [SMAA, 4,6-dimethyl-2-N^4-maleylsulfanilamidopyrimidine]
[6]
  results in swine: good results
[1]; efficacy remark, rabbits
  Observations: most effective in mixed infections with E. coli
[1]; rabbit, in vivo
  Observations: Treatment can be extended up to 3 weeks, if given in low doses, without risk of toxicity or residues in carcasses
[7]
  results in swine: good results
[2]; duration of treatment and toxicity
  Observations: Treatment can be prolonged without risk of toxicity
[2]; effect on mortality
  Observations: This treatment curtails mortality
[2]; efficacy remark
  Observations: The most effective agent in mixed infections by Coccidia
[8]
  dysbacteriosis: no problems of dysbacteriosis have appeared
[5]; listed as free acid of SMAA
  solubility in water: essentially insoluble
[9]; end of trial (4 weeks), due to undetermined causes
  mortality: lower than 0.3%
[9]; end of trial (4 weeks), five thousand lambs, richer feed (1.03 UFC)
  enterotoxemia in the livestock: absent
[9]; trial of 4 weeks
  watery diarrhea caused by E. coli, Salmonella dysentery, or coccidiosis: no case
[10]
  residue level in meat: below 30 ppb
[11]
  mortality, weight gain, and conversion index: best results

Source: patent EP1861101B1, “USE OF AMIDES OF SULFADIMIDINE FOR THE TREATMENT OF INTESTINAL DISEASES IN VETERINARY SCIENCE” (priority 2005, dated 2006)
